Measured values reported in patent publication US10934255B2, “Nrf and HIF activators/HDAC inhibitors and therapeutic methods using the same” (THE BOARD OF TRUSTEES OF THE UNIVERSITY OF ILLINOIS, priority 2017, dated 2021).

Key:
Assay type in all cases: biochemical
HDAC8 = target: T1, HDAC8 (Homo sapiens, UniProt Q9BY41); experiment: HDAC8 isoform selectivity assay; details: Table 2 isoform selectivity; read-out: HDAC Inhibition (IC50 uM) isoform 8
T1 sequence (Q9BY41 1-377): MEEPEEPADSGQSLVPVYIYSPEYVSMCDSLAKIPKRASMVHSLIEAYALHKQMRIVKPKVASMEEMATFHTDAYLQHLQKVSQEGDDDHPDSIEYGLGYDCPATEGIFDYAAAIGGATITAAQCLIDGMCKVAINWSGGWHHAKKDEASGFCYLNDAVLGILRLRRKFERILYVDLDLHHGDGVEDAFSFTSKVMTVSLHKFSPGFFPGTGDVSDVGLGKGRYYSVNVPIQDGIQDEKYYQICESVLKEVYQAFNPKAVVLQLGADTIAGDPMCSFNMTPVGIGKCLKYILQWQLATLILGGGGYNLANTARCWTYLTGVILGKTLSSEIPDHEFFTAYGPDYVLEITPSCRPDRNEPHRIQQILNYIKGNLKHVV
Description: (§1) The HDAC1, 2, 4, 5, 6, 7, 8, 9, 10, and 11 assays used isolated recombinant human protein; HDAC3/NcoR2 complex was used for the HDAC3 assay. Substrate for HDAC1, 2, 3, 6, 10, and 11 assays is a fluorogenic peptide from p53 residues 379-382 (RHKKAc); substrate for HDAC8 is fluorogenic diacyl peptide based on residues 379-382 of p53 (RHKAcKAc). Acetyl-Lys(trifluoroacetyl)-AMC substrate was used for HDAC4, 5, 7, and 9 assays. Compounds were dissolved in DMSO and tested in 10-dose IC50 mode with 3-fold serial dilution starting at 30 μM. Control Compound Trichostatin A (TSA) was tested in a 10-dose IC50 with 3-fold serial dilution starting at 5 μM. IC50 values were extracted by curve-fitting the dose/response slopes. Assays were performed in duplicate and IC50 values are an average of data from both experiments.

HDAC10 = target: T2, HDAC10 (Homo sapiens, UniProt Q969S8); experiment: HDAC10 isoform selectivity assay; details: Table 2 isoform selectivity; read-out: HDAC Inhibition (IC50 uM) isoform 10
T2 sequence (Q969S8 1-669): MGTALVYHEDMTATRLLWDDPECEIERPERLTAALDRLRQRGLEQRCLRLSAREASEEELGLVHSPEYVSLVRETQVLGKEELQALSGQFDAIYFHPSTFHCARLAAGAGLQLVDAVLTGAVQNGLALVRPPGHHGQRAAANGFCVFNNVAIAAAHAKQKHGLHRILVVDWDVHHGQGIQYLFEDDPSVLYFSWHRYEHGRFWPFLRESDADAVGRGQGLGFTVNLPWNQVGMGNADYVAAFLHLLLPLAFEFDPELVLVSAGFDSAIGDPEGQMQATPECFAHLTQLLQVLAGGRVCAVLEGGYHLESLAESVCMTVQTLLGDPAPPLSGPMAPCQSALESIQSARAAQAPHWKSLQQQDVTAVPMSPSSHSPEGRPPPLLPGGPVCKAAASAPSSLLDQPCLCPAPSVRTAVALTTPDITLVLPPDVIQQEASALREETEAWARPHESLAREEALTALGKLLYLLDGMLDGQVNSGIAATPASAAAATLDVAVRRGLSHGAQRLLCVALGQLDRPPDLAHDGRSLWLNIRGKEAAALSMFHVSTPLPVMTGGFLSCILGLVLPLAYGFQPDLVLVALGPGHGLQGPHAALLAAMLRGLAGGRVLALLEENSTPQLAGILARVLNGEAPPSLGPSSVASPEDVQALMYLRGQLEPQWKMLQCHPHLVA
Description: as §1

HDAC7 = target: T3, HDAC7 (Homo sapiens, UniProt Q8WUI4); experiment: HDAC7 isoform selectivity assay; details: Table 2 isoform selectivity; read-out: HDAC Inhibition (IC50 uM) isoform 7
T3 sequence (Q8WUI4 1-952): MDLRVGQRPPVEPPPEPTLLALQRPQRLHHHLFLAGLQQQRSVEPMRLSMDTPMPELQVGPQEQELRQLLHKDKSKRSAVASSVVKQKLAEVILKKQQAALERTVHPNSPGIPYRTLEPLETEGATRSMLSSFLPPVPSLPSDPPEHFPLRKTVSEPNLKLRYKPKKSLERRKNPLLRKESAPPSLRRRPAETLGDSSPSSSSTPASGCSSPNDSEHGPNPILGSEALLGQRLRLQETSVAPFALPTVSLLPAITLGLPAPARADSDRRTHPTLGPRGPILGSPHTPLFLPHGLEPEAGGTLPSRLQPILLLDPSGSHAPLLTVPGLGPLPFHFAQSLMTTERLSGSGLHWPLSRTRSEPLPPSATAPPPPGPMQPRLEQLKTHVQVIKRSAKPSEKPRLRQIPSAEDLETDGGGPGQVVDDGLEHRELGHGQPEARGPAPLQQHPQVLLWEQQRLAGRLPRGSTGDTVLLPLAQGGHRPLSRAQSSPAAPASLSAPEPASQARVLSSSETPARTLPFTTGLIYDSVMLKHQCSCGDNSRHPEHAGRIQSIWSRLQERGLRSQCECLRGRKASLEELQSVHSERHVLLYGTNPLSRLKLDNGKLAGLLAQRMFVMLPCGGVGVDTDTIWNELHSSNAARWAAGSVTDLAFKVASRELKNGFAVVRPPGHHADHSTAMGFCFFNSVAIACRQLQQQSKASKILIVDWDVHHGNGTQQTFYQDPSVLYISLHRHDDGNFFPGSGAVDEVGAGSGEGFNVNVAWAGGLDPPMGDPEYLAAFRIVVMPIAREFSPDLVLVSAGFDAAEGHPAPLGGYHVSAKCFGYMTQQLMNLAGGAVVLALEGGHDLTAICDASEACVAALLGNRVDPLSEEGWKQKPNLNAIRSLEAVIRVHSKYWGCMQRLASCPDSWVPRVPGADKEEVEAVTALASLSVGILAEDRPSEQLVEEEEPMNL
Description: as §1

HDAC3/NcoR2 complex = HDAC3/NcoR2 complex (Homo sapiens, UniProt O15379); experiment: HDAC3 isoform selectivity assay; details: Table 2 isoform selectivity; read-out: HDAC Inhibition (IC50 uM) isoform 3
Sequence of HDAC3/NcoR2 complex (O15379 whole entry, canonical isoform): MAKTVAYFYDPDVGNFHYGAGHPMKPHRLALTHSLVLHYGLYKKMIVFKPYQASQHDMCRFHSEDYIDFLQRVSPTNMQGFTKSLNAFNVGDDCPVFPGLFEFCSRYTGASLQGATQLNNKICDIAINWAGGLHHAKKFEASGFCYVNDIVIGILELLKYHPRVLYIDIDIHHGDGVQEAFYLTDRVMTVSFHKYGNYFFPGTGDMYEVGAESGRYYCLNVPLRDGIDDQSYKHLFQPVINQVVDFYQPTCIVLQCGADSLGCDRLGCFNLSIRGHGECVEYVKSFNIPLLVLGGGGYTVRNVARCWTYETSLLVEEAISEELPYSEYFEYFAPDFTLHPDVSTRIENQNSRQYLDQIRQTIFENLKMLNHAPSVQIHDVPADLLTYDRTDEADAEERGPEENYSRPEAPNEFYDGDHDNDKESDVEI
Sequence of HDAC3/NcoR2 complex (Q9Y618 395-489 partner limits assumed): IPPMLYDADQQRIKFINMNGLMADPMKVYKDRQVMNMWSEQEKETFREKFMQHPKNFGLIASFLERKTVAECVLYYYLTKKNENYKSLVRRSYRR
Description: The HDAC1, 2, 4, 5, 6, 7, 8, 9, 10, and 11 assays used isolated recombinant human protein; HDAC3/NcoR2 complex was used for the HDAC3 assay. […] Acetyl-Lys(trifluoroacetyl)-AMC substrate was used for HDAC4, 5, 7, and 9 assays. […] IC50 values were extracted by curve-fitting the dose/response slopes. Assays were performed in duplicate and IC50 values are an average of data from both experiments.

HDAC9 = HDAC9 (Homo sapiens, UniProt Q9UKV0); experiment: HDAC9 isoform selectivity assay; details: Table 2 isoform selectivity; read-out: HDAC Inhibition (IC50 uM) isoform 9
Sequence of HDAC9 (Q9UKV0 whole entry, canonical isoform): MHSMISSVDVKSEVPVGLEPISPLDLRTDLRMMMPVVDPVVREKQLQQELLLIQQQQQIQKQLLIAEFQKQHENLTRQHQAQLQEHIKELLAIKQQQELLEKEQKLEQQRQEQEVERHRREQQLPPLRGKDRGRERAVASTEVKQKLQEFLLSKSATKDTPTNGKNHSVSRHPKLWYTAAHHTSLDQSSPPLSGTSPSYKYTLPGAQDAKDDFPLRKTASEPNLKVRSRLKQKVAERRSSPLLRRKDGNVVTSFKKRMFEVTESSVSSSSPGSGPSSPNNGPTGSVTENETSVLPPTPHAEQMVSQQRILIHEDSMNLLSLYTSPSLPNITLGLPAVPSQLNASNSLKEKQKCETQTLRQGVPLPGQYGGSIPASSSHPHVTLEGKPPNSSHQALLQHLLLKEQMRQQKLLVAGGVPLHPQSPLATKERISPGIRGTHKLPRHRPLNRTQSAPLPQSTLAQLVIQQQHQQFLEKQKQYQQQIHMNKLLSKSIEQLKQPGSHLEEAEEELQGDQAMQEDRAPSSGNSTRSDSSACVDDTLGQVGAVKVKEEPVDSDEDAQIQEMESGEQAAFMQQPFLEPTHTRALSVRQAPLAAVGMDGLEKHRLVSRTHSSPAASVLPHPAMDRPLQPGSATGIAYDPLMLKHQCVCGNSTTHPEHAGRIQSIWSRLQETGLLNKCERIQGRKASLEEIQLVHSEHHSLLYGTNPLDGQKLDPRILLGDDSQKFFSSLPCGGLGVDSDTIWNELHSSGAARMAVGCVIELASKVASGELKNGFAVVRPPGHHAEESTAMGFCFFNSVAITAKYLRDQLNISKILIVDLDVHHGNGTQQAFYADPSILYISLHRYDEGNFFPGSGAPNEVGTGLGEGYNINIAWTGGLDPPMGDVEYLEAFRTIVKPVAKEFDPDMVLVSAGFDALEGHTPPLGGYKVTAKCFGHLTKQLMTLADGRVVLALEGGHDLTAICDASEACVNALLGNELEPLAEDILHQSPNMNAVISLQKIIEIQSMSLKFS
Description: as §1

SMILES	IC50 (HDAC8) [µM]	IC50 (HDAC10) [µM]	IC50 (HDAC7) [µM]	IC50 (HDAC3/NcoR2 complex) [µM]	IC50 (HDAC9) [µM]
Cn1c(NCc2ccc(C(=O)NO)cc2)nc2ccccc21 [II-ING-13, N-Hydroxy-4-(((1-methyl-1H-benzo[d]imidazol-2-yl)amino)methyl)benzamide]	0.17	5.95	0.55	3.51	1.1
O=C(NO)c1ccc(CN2CCc3ccc(Cl)cc32)cc1 [II-ING-6, 4-((6-Chloroindolin-1-yl)methyl)-N-hydroxybenzamide]	0.53	6.39	0.98	4.34	2.06
O=C(NO)c1ccc(CN2CCc3ccc(F)cc32)cc1 [II-ING-41, 4-((6-Fluoroindolin-1-yl)methyl)-N-hydroxybenzamide]	0.19	6.03	0.46	5.43	1
